The values below come from patent US20070259435A1, “Intravenous Drug Administration and Blood Sampling Model in the Awake Rat” (priority 2004, published 2007).

Counter-ions that a name gives are not always drawn. Like-named read-outs stand apart in the source and are kept apart here.

Data set [1] is described as follows: in vivo. The note with it: male, Sprague-Dawley, rat, single oral 5 mg/kg, Mean. The source says:
(§1) Male SPF Sprague-Dawley rats (200-300 g, Charles River, Germany) were used throughout the study. Animals were allowed to acclimatize for one week prior to each part of the study. Tap water and food were available ad libitum.
(§2) The plasma concentration profile and major PK parameters of different chemical structures were investigated following oral administration. Blood samples were taken from the tail vein with either the multiple or single sampling method.
(§3) For both methods, the same formulation per compound was used to ensure any differences in results were not due to formulation effects. Test compounds JNJ1 (a farnesyl transferase compound), JNJ2 (galantamine hydrobromide) and JNJ3 (a CRF antagonist) were formulated in demineralized water or a 10% hydroxypropyl- -β cyclodextrin (HP- - ? CD) solution at final concentrations of between 0.25 and 1 mg/ml. All formulations were stored at room temperature, protected from light and analysed quantitatively. Animals were orally dosed by gastric intubation using a volume of 10 ml/kg.
After dosing the compound, blood samples were taken at the desired time points. For the single sampling method, three animals per time point were sacrificed by decapitation and blood was collected by exsanguination into 10 ml B-D Sterile EDTA K3 Vacutainer tubes. For the multiple sampling technique 0.3 ml venous blood was repeatedly collected from the tail vein as described above. […] Plasma samples were analysed for the appropriate compound using individual qualified research LC-MS/MS methods as described in section 2.4.
For all compounds, individual calibration curves were constructed in blank EDTA rat plasma (covering the expected concentration range). […] After sample preparation, the (reconstituted) residues were pipetted in polypropylene auto sampler vials and analysed using individual qualified research methods.
Aliquots of the residues were analysed using multiple reaction monitoring (MRM) liquid chromatography coupled to tandem mass spectrometry (LC-MS/MS) (API-3000 or 4000, Applied Biosystems, Canada). Chromatographic separation was obtained on commercial base deactivated C-18 columns of different brands, depending on the chromatographic behaviour of the compounds to be analysed. […] Final concentrations were calculated by interpolation from the calibration curves response, using a linear regression model. […]
A limited PK analysis was performed using WinNonlin™ Professional (Version 3.3). […] Average values were then calculated to compare the multiple and the single sampling method. The PK parameters calculated were observed maximum plasma concentration (Cmax), the time to reach the maximum plasma concentration (Tmax), plasma half-life (t1/2) and exposure of the compound calculated by the area under the curve (AUClast and AUCinf). […]

Data set [2] can be described thus: in vivo. Conditions: male, Sprague-Dawley, rat, po, 5 mg/kg, single oral 5 mg/kg, multiple sampling.
From the text: as §1
For multiple blood sampling via the tail vein the animals were placed in a rodent cylindrical restrainer developed by the Scientific Instrument Division (Johnson & Johnson, Pharmaceutical Research and Development, division of Janssen Pharmaceutica). The rat's tail was warmed using an infra red lamp to facilitate the sampling. Venous blood was collected by a 27 G needle into Multivette 600KE tubes containing EDTA (Sarstedt, Germany).
as §2, §3
After dosing the compound, blood samples were taken at the desired time points. For the single sampling method, three animals per time point were sacrificed by decapitation and blood was collected by exsanguination into 10 ml B-D Sterile EDTA K3 Vacutainer tubes. For the multiple sampling technique 0.3 ml venous blood was repeatedly collected from the tail vein as described above. For each compound, 3 rats were used for a complete plasma concentration time profile. Plasma samples were analysed for the appropriate compound using individual qualified research LC-MS/MS methods as described in section 2.4.
For all compounds, individual calibration curves were constructed in blank EDTA rat plasma (covering the expected concentration range). Independent quality control samples (QC) were prepared in rat EDTA plasma at four concentration levels in duplicate, covering the entire calibration range. The study samples, calibration and QC samples were extracted using a generic sample preparation method. After sample preparation, the (reconstituted) residues were pipetted in polypropylene auto sampler vials and analysed using individual qualified research methods.
Aliquots of the residues were analysed using multiple reaction monitoring (MRM) liquid chromatography coupled to tandem mass spectrometry (LC-MS/MS) (API-3000 or 4000, Applied Biosystems, Canada). Chromatographic separation was obtained on commercial base deactivated C-18 columns of different brands, depending on the chromatographic behaviour of the compounds to be analysed. The mass spectrometers were operated in the TurbolonSpray TM mode (positive ion electrospray ionisation). For each compound the mass spectrometer was optimised to measure a selective parent-daughter transition. Integration of the chromatographic peaks was performed using the Analist software version 1.2 (Applied Biosystem, Canada). Final concentrations were calculated by interpolation from the calibration curves response, using a linear regression model. Both accuracy and precision were within expectations for all compounds, allowing accurate PK calculations
A limited PK analysis was performed using WinNonlin™ Professional (Version 3.3). For the single sampling method, a non-compartmental data analysis was carried out on the mean plasma concentration profile (n=3/time point). For the multiple sampling method, a non-compartmental data analysis was carried out on the plasma concentration time profiles obtained from each animal (n=3). […]

For `COc1ccc2c3c1O[C@H]1C[C@@H](O)C=C[C@@]31CCN(C)C2` [JNJ2, galantamine hydrobromide], the AUC(0-inf) in “in vivo [1]” (read-out: AUCinf (extrapolated exposure)) was 1440 ng·h/mL; in the data set “in vivo [2]” (Mean, read-out: AUCinf (extrapolated exposure)), 1180 ng·h/mL; in the data set “in vivo [2]” (Rat 1, read-out: AUCinf (extrapolated exposure)), 1440 ng·h/mL; in “in vivo [2]” (Rat 2, read-out: AUCinf (extrapolated exposure)) it was 1180 ng·h/mL; in “in vivo [2]” (Rat 3, read-out: AUCinf (extrapolated exposure)) it was 913 ng·h/mL. The AUC(0-t) in the data set “in vivo [1]” (read-out: AUClast (observed exposure)) is 1380 ng·h/mL; in the data set “in vivo [2]” (Mean, read-out: AUClast (observed exposure)), 1100 ng·h/mL; in “in vivo [2]” (Rat 1, read-out: AUClast (observed exposure)) it was 1310 ng·h/mL; in “in vivo [2]” (Rat 2, read-out: AUClast (observed exposure)) it was 1120 ng·h/mL; in the data set “in vivo [2]” (Rat 3, read-out: AUClast (observed exposure)), 866 ng·h/mL. In addition, the Cmax in the data set “in vivo [1]” (read-out: Cmax (maximum plasma concentration)) came out at 155 ng/mL; in “in vivo [2]” (Mean, read-out: Cmax (maximum plasma concentration)), 113 ng/mL; in “in vivo [2]” (Rat 1, read-out: Cmax (maximum plasma concentration)), 135 ng/mL; in the data set “in vivo [2]” (Rat 2, read-out: Cmax (maximum plasma concentration)), 96.3 ng/mL; in “in vivo [2]” (Rat 3, read-out: Cmax (maximum plasma concentration)) it was 108 ng/mL. Besides, the half-life in the data set “in vivo [1]” (read-out: t1/2 (half life) (converted)) is 4.93 h; in the data set “in vivo [2]” (Mean, read-out: t1/2 (half life) (converted)), 5.75 h; in “in vivo [2]” (Rat 1, read-out: t1/2 (half life) (converted)), 6.81 h; in the data set “in vivo [2]” (Rat 2, read-out: t1/2 (half life) (converted)), 4.89 h; in “in vivo [2]” (Rat 3, read-out: t1/2 (half life) (converted)), 5.65 h.
